Source: patent US8546397B2, “DNA methylation inhibitors” (The Ohio State University Research Foundation, priority 2010, dated 2013)
Entries after “also recorded” stand apart in the source; their conditions may differ. Where two headings read alike, the source gives them in different places.

Tests used:
[1] = test system: Trip10 promoter methylation (EGFP expression) in MCF7 cells; conditions: for inhibition of EGFP expression (DNA demethylation) in library screening: each compound at 7.5 μM, MCF7 reporter cells; for EGFP expression levels relative to DMSO control: transfected MCF7 cells, different concentrations, 5-day treatment, fluorescence microscopy
Trip10 promoter = experiment: Methylation-specific PCR (MSP) of Trip10; type: cell-based; conditions: MCF7 cells, 7.5 or 30 μM, 5 days of treatment
Procedure: (§1) Cell culture and drug treatment. […] 5-Aza and procainamide were purchased from Sigma-Aldrich. […] Control cells received DMSO vehicle.
Bisulfite conversion. Genomic DNA (0.5 μg) was bisulfite-converted by the EZ DNA Methylation Kit (Zymo) by following the manufacturer's instructions.
qMSP. Bisulfite converted DNAs were PCR-amplified by using appropriate PCR primers. Universal methylated DNAs (Millipore) were used as positive control. Col2A1 was used as a loading control and to amplify the serial diluted (1/10, 1/100 and 1/1000) bisulfite-converted universal methylated DNAs to generate the standard curve for quantization in real time PCR machine (Bio-Rad, iQ5). The methylation percentage was calculated as [(Intensity of Amplifications by Trip10 MSP primer set)×100]/(Intensity of Amplifications by Col2A1 MSP primer set) (%). The qMSP was performed in a 25 μL, of reaction mixture containing 4 μL of template (bisulfate treated DNA), 2 μL of primer pair (2.5 μM), 12.5 μL of 2× reaction buffer (SYBR Green real time PCR Master Mix, Toyobo), and 6.5 μL of H2O.

[2] = test system: EGFP expression in MCF7 cells; experiment: GFP ELISA of EGFP expression in the two-component reporter system; type: cell-based
Procedure: as §1
ELISA. Enzyme-linked immunosorbent assay (ELISA) was performed using the GFP ELISA kit (Cell Biolabs, San Diego, Calif.) according to the manufacture's instruction.

GSTp1 = experiment: Methylation-specific PCR (MSP) of GSTp1; type: cell-based; conditions: MCF7 cells, 7.5 or 30 μM, 5 days of treatment
[3] = test system: genome-wide methylation in MCF7 cells; experiment: Differential Methylation Hybridization (DMH) array, genome-wide methylation; type: cell-based
Procedure: Differential Methylation Hybridization (DMH) Array. DMH was performed according to a reported procedure. Yan et al., J Nutr, 132(8 Suppl): p. 2430S-2434S (2002). Amplicons prepared from control (vehicle-treated) MCF7 cells were labeled with Cy5 and the amplicons prepared from drug-treated cells were labeled with Cy3. Labeled DNAs were co-hybridized onto 244K Agilent promoter array. Array hybridization results were normalized with LOWESS and a cutoff of 4 folds was used.
Statistics. ELISA and MTT results were analyzed by F-test. Significant demethylated loci were confirmed by ANOVA from DMH results. Linear regression was used to deduce the global methylation states before and after the demethylation agent treatment.

[4] = test system: EGFP expression in MCF7 cells; experiment: Western blot analysis of EGFP expression; type: cell-based; conditions: 7.5 μM, 5 days
Procedure: as §1
Western blotting. Equal amounts of protein in cell lysates were separated in 10% SDS polyacrylamide gels and then transblotted to nitrocellulose membranes. After blocking with non-fat milk, the membrane was washed and incubated with antibodies against GFP (Abeam) or (β-actin (Sigma-Aldrich). The membrane was washed, and then incubated with anti-rabbit immunoglobulin G-horseradish peroxidase. After final wash, the proteins were visualized by enhanced chemiluminescence. Immunoblotting data were analyzed by NIH Image.
In another set of experiment, cells were treated with 7.5 μM of candidate drugs for 5 days, then the cell lysates were harvested and subjected to Western blot. […] The inconsistence between the Western blot result versus the ELISA/images is not immediately clear. Results obtained from ELISA and Western blot confirmed that IM25 is an effective demethylation agent in inhibiting EGFP expression.

cancer cell growth = conditions: Lee et al., J. Biol. Chem. 280 (2005); cited from earlier work
MCF7 cells [5] = experiment: MTT cell viability assay; conditions: 5-day treatment, dose range
Procedure: (§2) MCF7 breast cancer cells, obtained from American Type Culture Collection, were grown in Minimal Essential Medium (MEM; Invitrogen), supplemented with 10% FBS, 2 mM L-glutamine, and 100 μg/ml penicillin/streptomycin. Cells were cultured at 37° C. in a humidified incubator containing 5% CO2. Medium changes were performed twice weekly and cell passages were performed at 90% confluence. To maintain the two-component constructs in MCF7 cells, 200 μg/mL of hygromycin B (Invitrogen) and 500 μg/mL of Geneticin (G418, Calbiochem) were included in culture medium. 5-Aza and procainamide were purchased from Sigma-Aldrich. Compounds being tested were dissolved in DMSO as stock solutions, and added to culture medium with final DMSO concentrations of 0.3% and 1.2% (v/v) for 7.5 μM and 30 μM of testing drugs, respectively. Control cells received DMSO vehicle. During the 5-day treatment period, medium was changed on the third day of treatment along with the addition of 17β-estradiol (E2, 10 ng/ml).
(§3) Cell viability was assessed using MTT [3-(4,5-dimethylthiazol-2-yl)-2,5-diphenyl-2H-tetrazolium bromide, Sigma-Aldrich) in six replicates. MCF7 cells were seeded at 4,000 cells per well in 96-well plates, and treated with test agents at different concentrations. […] Reduced MTT was solubilized in 200 μl/well of DMSO for determination of absorbance of 595 nm using a microplate reader.

MCF7 cells [6] = test system: MCF7 cells
Procedure: as §2, §3

SMILES | inhibition of EGFP expression (DNA demethylation) in library screening [1] | methylation level of Trip10 (Trip10 promoter) | demethylation potency in terms of inhibiting the EGFP expression [2] | methylation level of GSTp1 (GSTp1) | global (genome-wide) demethylation ([3]; MCF7 cells, 7.5 μM) | more demethylated loci than after 5-Aza treatment ([3]; out of 244K target loci in Agilent array, significant by ANOVA) | protein level of EGFP [4] | morphological changes, light microscopy (Vis) [1] | EGFP expression levels relative to DMSO control [1] | concentration required to be effective in DNA demethylation in suppressing cancer cell growth (cancer cell growth) [µM] | suppression of MCF7 cell viability (MCF7 cells [5]) | suppression of MCF7 cell viability (MCF7 cells [6])
COc1ccc(S(=O)(=O)N2CCNCC2)cc1OC [IM25] | high activity | greatest potency in facilitating the demethylation of both Trip10 and GSTp1; also recorded: weaker effect in demethylating Trip10 promoter | greater demethylation potency than 5-Aza | greatest potency in facilitating the demethylation of both Trip10 and GSTp1; also recorded: significantly reduced the methylation level of GSTp1 | able to cause global demethylation in MCF7 cells | 5,506 loci | substantially suppressed |  |  |  |  | 
CCN(CC)CCNC(=O)c1ccc(N)cc1 [procainamide] |  | weaker effect in demethylating Trip10 promoter |  | significantly reduced the methylation level of GSTp1 |  |  |  | did not cause morphological changes | dose-dependent, repressive effects on EGFP expression levels | ≥ 50 | did not cause morphological changes [light microscopy (Vis)] or suppression of cell viability | 
COc1ccc(O)c(C(C)=O)c1 [CI-4-1] | high activity | decreases the methylation level of both genes, but to a lesser extent; also recorded: weaker effect in demethylating Trip10 promoter |  | decreases the methylation level of both genes, but to a lesser extent; also recorded: significantly reduced the methylation level of GSTp1 |  |  |  |  |  |  |  | 
Nc1ncn([C@H]2C[C@H](O)[C@@H](CO)O2)c(=O)n1 [Compound 5-Aza, 5-aza-2′-deoxycytidine] |  | weaker effect in demethylating Trip10 promoter |  | significantly reduced the methylation level of GSTp1 |  |  |  | did not cause morphological changes | dose-dependent, repressive effects on EGFP expression levels |  |  | did not cause morphological changes [light microscopy (Vis)] or suppression of cell viability
O=S(=O)(c1ccc(Br)cc1)N1CCNCC1 [IM9] |  |  |  |  |  |  | significantly inhibited |  |  |  |  | 
